The source of these data is patent US20230144023A1, “USE OF BUTYLPHTHALIDE AND DERIVATIVE THEREOF” (CSPC NBP PHARMACEUTICAL CO., LTD, priority 2020, published 2023).

Counter-ions that a name gives are not always drawn. Like-named read-outs stand apart in the source and are kept apart here.

Data set [1] deals with chemotherapy-induced peripheral neuropathy. Particulars: cited from earlier work.
Data set [2] has the same test system. The settings on record: treatment of CIPN; guideline rating; cited from earlier work.
The subject of the next data set is MM.1S xenograft tumor. In words: Influence of NBP on in vivo anti-tumor efficacy of Bortezomib, MM.1S xenograft (Example 8). Set-up: species or system Nu/Nu mice. The procedure: After in vitro resuscitation and passage of MM.1S cells to a sufficient amount, the cells were counted by a microscope, and diluted with a serum-free medium to adjust the cell count to about 1×10^8 cells/mL. The cell suspension was kept in an ice-water bath. The MM.1S cell suspension was extracted by a sterile syringe and inoculated into the subcutaneous tissue of the forelimb axilla of the Nu/Nu mice. […] Monotherapy group of Palbociclib: intragastric administration at 70 mg/kg, qd (the administration was commenced on day 0); […] The solvent group was given the solvent at the same frequency and with the same administration method as Bortezomib and NBP. The administration period was 16 days, and the administration volume was 10 mL/kg. […] Animals were weighed at set time once per day after the commencement of administration. After animals were grouped, the long diameter and the short diameter of the tumor were measured twice every week. […] V=1⁄2×A×B^2 […] (4) Tumor growth inhibition rate: Note: V: tumor volume; A: tumor length; B: tumor width; RTV: relative tumor volume; TVnd: tumor volume on day n; TV0d: tumor volume on day 0; […]: mean relative tumor volume on day n; TVXn: mean tumor volume of the therapy group on day n; TVX0: mean tumor volume of the therapy group on day 0; TVMn: mean tumor volume of the solvent group on day n; and TVM0: mean tumor volume of the solvent group on day 0 At the end of the experiment, after the animals were euthanized by CO2 asphyxiation, the tumors were excised and weighed.

Data set [3] has as its system paclitaxel (albumin bound) chemotherapy-induced peripheral neuropathy. In words: Paclitaxel (albumin bound) chemotherapy-induced peripheral neuropathy in rats, butylphthalide intragastric administration (Example 2). It is filed as in vivo, SD (Sprague Dawley) rats. Particulars: duloxetine hydrochloride 15 mg/kg qd, compared with the model group. The procedure:
The model group was given vegetable oil at the same frequency and with the same administration method as NBP. The normal group was given normal saline at the same frequency and with the same administration method as ab-PTX, and was given vegetable oil at the same frequency and with the same administration method as NBP. […] (2) Thermal pain threshold: measurements were performed on days −1, 7, and 14. Method: IITC Life Science Electronic Von Frey Anesthesio meter was used and the intensity of the light source was adjusted to obtain a baseline of thermal pain threshold of about 3-6 s. […] The rats were placed in a plastic compartment on a glass plate, to make the planta centers of the rats be exposed to the light source. […] (3) Mechanical stimulus pain threshold: measurements were performed on days 0, 6, and 13. Method: the rats were placed in a plastic compartment on a wire mesh, left to stand still for 15 min, stimulated using a stimulation probe with a diameter of 0.4 mm of the IITC Life Science Electronic Von Frey Anesthesio meter at the planta centers of the rats by gradually increasing the force until reflexive withdrawal of the rats.

For data set [4] the following is noted: when the chemotherapy is stopped; cited from earlier work.
Where [5] appears, read: prevention of CIPN, guideline rating.
Where [6] appears, read: prevention of CIPN, patients receiving cisplatin/oxaliplatin-based chemotherapy.
[7] abbreviates: prevention of CIPN, patients receiving paclitaxel/carboplatin chemotherapy.
Where [8] appears, read: day 14, Bor 0.5 mg/kg, Pal 70 mg/kg, NBP 60 mg/kg, alone or combined.
[9] abbreviates: day 14, Bor 0.5 mg/kg, Pal 70 mg/kg, NBP 60 mg/kg, alone or combined, mean, n=6.
Where [10] appears, read: prevention of CIPN, patients receiving oxaliplatin treatment.

`CC(=O)O[C@H](CC(=O)[O-])C[N+](C)(C)C` [Acetyl L-carnitine]: in data set [1] (setting [5]), the Efficacy result is on record as “Low” and the Safety entry was “Low”. In data set [2], the Efficacy entry is “Low” and the Safety entry is recorded as “Moderate”.

For the molecule `CC(=O)N[C@@H](CS)C(=O)O` [Acetylcysteine], in data set [1] (setting [5]), the Efficacy entry is “Low” and the Safety result is “Low”.

Take `CC1=C(/C=C/C(C)=C/C=C/C(C)=C/C(=O)O)C(C)(C)CCC1` [All-trans retinoic acid]: in data set [1] (setting [5]), the Efficacy result is “Low” and the Safety result is listed as “Moderate”.

`NCCCNCCSP(=O)(O)O` [Amifostine]: in data set [1] (setting [5]), the Efficacy result is reported as “Low” and the Safety result is listed as “Moderate”.

As for `CN(C)CCC=C1c2ccccc2CCc2ccccc21` [Amitriptyline], in data set [1] (setting [5]), the Efficacy entry is listed as “No evidence” and the Safety entry is “Moderate”.

Turning to `NC(=O)N1c2ccccc2C=Cc2ccccc21` [Carbamazepine], in data set [1] (setting [5]), the Efficacy result is given as “Low” and the Safety result is “Low”.

For the molecule `CCN(CC)C(=S)S` [Diethyldithio-carbamate], the Safety entry in data set [1] (setting [5]) is on record as “High”.

`CNCC[C@H](Oc1cccc2ccccc12)c1cccs1` [Duloxetine]: in data set [2], the Efficacy result was “Moderate” and the Safety result is recorded as “Low”.

Regarding `NCC1(CC(=O)O)CCCCC1` [Gabapentin], in data set [2], the Efficacy entry was “Low” and the Safety result is “Low”.

In the case of `N[C@@H](CCC(=O)O)C(=O)O` [Glutamate], in data set [1] (setting [5]), the Efficacy entry is given as “Low” and the Safety result was “Low”.

In the case of `N[C@@H](CCC(=O)N[C@@H](CS)C(=O)NCC(=O)O)C(=O)O` [Glutathione], the Efficacy result in data set [1] (setting [6]) and in data set [1] (setting [7]) was “Low” each time. Besides, the Safety result in data set [1] (setting [6]) and in data set [1] (setting [7]) was “Low” throughout.

For `Nc1nnc(-c2cccc(Cl)c2Cl)c(N)n1` [Lamotrigine], in data set [2], the Efficacy entry was “No evidence” and the Safety entry is “Low”.

For `COCCOC(=O)C1=C(C)NC(C)=C(C(=O)OC(C)C)C1c1cccc([N+](=O)[O-])c1` (stereo not drawn) [Nimodipine], the Safety entry in data set [1] (setting [5]) is “Moderate”.

For the molecule `CC(=O)c1c(C)c2cnc(Nc3ccc(N4CCNCC4)cn3)nc2n(C2CCCC2)c1=O` [Palbociclib], in the data set with MM.1S xenograft tumor (setting [8]), the T/C % turned out to be 44.4% and the TGI % was 56.3%. In the data set with MM.1S xenograft tumor (setting [9]), the RTV was determined as 4.3 and the TV is given as 605.4 mm^3. For the same molecule, the “Tumor weight inhibition rate” value in the data set on MM.1S xenograft tumor (end of experiment, Bor 0.5 mg/kg, Pal 70 mg/kg, NBP 60 mg/kg, alone or combined) worked out at 66.6%. Further, the Tumor weight in the data set with MM.1S xenograft tumor (end of experiment, Bor 0.5 mg/kg, Pal 70 mg/kg, NBP 60 mg/kg, alone or combined, mean, n=6, in g (unit assumed)) is 0.550. In addition, in the data set with MM.1S xenograft tumor (mouse, in vivo), the “body weights of the mice” value is recorded as “no significant difference”.

Turning to `COc1ccc(C(CN(C)C)C2(O)CCCCC2)cc1` (stereo not drawn) [Venlafaxine], in data set [1] (setting [5]), the Efficacy entry is listed as “Low” and the Safety result is “Low”.

Take `CNCC[C@H](Oc1cccc2ccccc12)c1cccs1` [duloxetine hydrochloride, Duloxetine hydrochloride]: in data set [3] (NBP 3, 10 and 30 mg/kg bid, intragastric, throughout administration), the “body weights of the rats” value is listed as “significantly increase”. Also, the mechanical pain threshold entry in data set [3] (day 13, NBP 10 and 30 mg/kg bid, P<0.05) is “significantly decreased”. Moreover, the thermal pain threshold entry in data set [3] (day 14, NBP 3, 10 and 30 mg/kg bid, P<0.05) is recorded as “significantly decreased”.

As for `CC[C@]1(O)C[C@H]2CN(CCc3c([nH]c4ccccc34)[C@@](C(=O)OC)(c3cc4c(cc3OC)N(C=O)[C@H]3[C@@](O)(C(=O)OC)[C@H](OC(C)=O)[C@]5(CC)C=CCN6CC[C@]43[C@@H]65)C2)C1` [vincristine], in data set [4], the patients experiencing coasting was 30%.

On to Amitriptyline/nortriptyline, for which, in data set [2], the Efficacy result is recorded as “Low”.

Regarding Omega-3-fatty acid, in data set [1] (setting [10]), the Efficacy result was “Low” and the Safety result is given as “Low”.

With Vitamin E, in data set [1] (setting [5]), the Efficacy entry is reported as “Low” and the Safety result is recorded as “Low”.

As to “rhuLIF: intervention for prevention of CIPN listed in the ASCO guideline table”, the Safety entry in data set [1] is “Low”. Besides, the Efficacy entry in data set [1] (setting [5]) was “No evidence”.
